# Earlier results in US20020182585A1, “Combination and method using EDTA, cystine, zinc and selenium for anti-thrombin effect and for anti-platelet aggregation and measurement of efficacy” (priority 2001, published 2002).
# Conditions: EDTA binding of the metal cation; adapted from Schwartzenbach, 1957
row,Structure (SMILES),Stability Constant Log K
1,[Ni+2] [Ni^++],18.0
2,[Cd+2] [Cd^++],16.5
3,[Co+2] [Co^++],16.3
4,[Pb+2] [Pb^++],18.5
5,[Hg+2] [Hg^++],21.8
